Data taken from patent US5677285A, “Derivatives of neuraminic acid” (Fidia S.P.A., priority 1992, dated 1997).

Tested on: C1300 mouse neuroblastoma cells, Neuro-2a clone
Test: Neuritogenic activity (cells with neurites, optical microscopy)
Type: cell-based
Experimental: C1300 mouse neuroblastoma cells, Neuro-2a clone, (American Cell Type Culture Collection, Bethesda, Md.) were grown at a density of 10,000 cells/well in a culture medium containing Dulbecco's modified Eagle medium (DMEM, Flow), 10% fetal calf serum (FCS, batch IP 02, Seromed), penicillin (100 units per ml, Irvine), and L-glutamine (2 mM, Sigma). Cells were incubated at 37° C. for 24 hours, and medium was removed and substituted with 350 μl of fresh medium plus compounds to be tested.
Tested Compounds and Their Solubilization
Compounds ND35 and ND37 were solubilized at a concentration of 1×10^-2 M in dimethylsulfoxide (1% DMSO). For the different compounds, progressive dilutions in culture medium were performed (concentrations from 1×10^-5 to 1×10^-4 M).
Neuritogenic activity (cell number with neurites, optical microscopy)
Culture plates were incubated with compounds to be tested and analyzed using a phase contrast microscope (250×). Nine fields with prefixed coordinates were chosen and photographed. Then the total number of cells and those with neurites (length at least double the cell diameter) were counted in blind in each photograph. The percentage of cells with neurites was determined after counting of at least 100 cells (Facci L. et al.: Promotion of neuritogenesis in mouse neuroblastoma cells by exogenous ganglioside GM1. J. Neurochem. Raven Press, New York, 299-305,1984).

Question: Which results are given for `CCCCCCCCCCCCCCCC(=O)NC1C(O)CC(OCC)(C(=O)NCCCN(C)C)OC1C(O)C(O)CO` (centres unmarked) [ND35, 2-ethylglycoside of N-palmitoyl-neuraminic acid dimethylaminopropylamide]?
Answer: Cells with neurities (%) (1 × 10^-4 M): 39 ± 7%; Cells with neurities (%) (1 × 10^-5 M): 7 ± 2%; neuritogenesis in vitro (1×10^-5 to 1×10^-4 M): induce neuritogenesis; Cells with neurities (%) (2.5 × 10^-5 M): 7 ± 3%; Cells with neurities (%) (5 × 10^-5 M): 28 ± 7%
